Reference: ChEMBL document CHEMBL1201862, “PubChem BioAssay data set” (2004)
Calls of active or inactive are those of the source.

Assays:
[1] = A High Throughput Confirmatory Assay used to Identify Novel Compounds that Inhibit Mycobacterium Tuberculosis in the absence of Glycerol.; assay type: functional
[2] = fluconazole-exposed Candida albicans growth modulators – fluorescence, retest, confirmation (AID 2467); assay type: functional, cell-based
[3] = biological target: T1, Rac GTPase-activating protein 1 (Homo sapiens, UniProt Q9H0H5); assay: blockers of MgcRacGAP-driven Rac1 GTP hydrolysis – biochemical, ADP Hunter fluorescence, primary and confirmatory, confirmation (AID 624330); assay type: functional
T1 sequence (Q9H0H5 whole entry): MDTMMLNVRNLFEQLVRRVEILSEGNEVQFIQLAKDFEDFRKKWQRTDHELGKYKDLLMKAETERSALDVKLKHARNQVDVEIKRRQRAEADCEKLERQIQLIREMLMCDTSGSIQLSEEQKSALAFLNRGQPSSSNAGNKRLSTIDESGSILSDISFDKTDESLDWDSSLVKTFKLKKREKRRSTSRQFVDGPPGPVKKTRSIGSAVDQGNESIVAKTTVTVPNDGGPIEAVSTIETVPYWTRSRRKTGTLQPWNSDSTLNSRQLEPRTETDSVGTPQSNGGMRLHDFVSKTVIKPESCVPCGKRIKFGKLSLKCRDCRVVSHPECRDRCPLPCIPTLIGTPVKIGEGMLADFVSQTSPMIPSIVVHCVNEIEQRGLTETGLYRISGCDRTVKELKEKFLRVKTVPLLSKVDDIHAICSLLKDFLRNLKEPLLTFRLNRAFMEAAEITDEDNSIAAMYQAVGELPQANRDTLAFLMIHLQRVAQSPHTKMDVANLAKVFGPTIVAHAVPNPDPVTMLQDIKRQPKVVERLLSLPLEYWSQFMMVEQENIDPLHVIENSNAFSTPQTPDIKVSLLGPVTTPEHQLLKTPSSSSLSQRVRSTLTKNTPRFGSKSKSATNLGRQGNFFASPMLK

[4] = NIH-3T3 fibroblast cytotoxicity, dose response, cytotoxicity control, cell-based, fluorescence, Alamar Blue, secondary assay (AID 2327); assay type: functional;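 also: NIH-3T3 mouse fibroblasts cultured with fluconazole at 8 µg/mL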
[5] = loss of viability in HepG2 cells – cell-based, CellTiter-Glo, cherry-picked, cytotoxicity control for Shn3 inhibitor project, dose response (AID 624134); assay type: functional
[6] = reduction of Shn3 3'UTR-driven luciferase in osteoblasts – cell-based, Clone20 osteoblasts, firefly luciferase, cherry-picked, dose response (AID 624132); assay type: functional;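 also: firefly luciferase luminescence from reporter carrying the Shn3 3'UTR in osteoblasts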
[7] = non-specific 3'UTR reporter inhibition in Clone20-Shn3RL – cell-based, Renilla luciferase, cherry-picked, counter-screen for Shn3 inhibitor project, dose response (AID 624133); assay type: functional
[8] = biological target: Heat shock protein HSP 90-alpha (Homo sapiens, UniProt P07900); assay type: functional, organism-based
Caspase-6 = biological target: T2, Caspase-6 (Homo sapiens, UniProt P55212); assay: inhibition of CASP6 peptide cleavage – biochemical, VEID-R110 fluorescence, cherry-pick, dose response (AID 720632)
T2 sequence (P55212 whole entry): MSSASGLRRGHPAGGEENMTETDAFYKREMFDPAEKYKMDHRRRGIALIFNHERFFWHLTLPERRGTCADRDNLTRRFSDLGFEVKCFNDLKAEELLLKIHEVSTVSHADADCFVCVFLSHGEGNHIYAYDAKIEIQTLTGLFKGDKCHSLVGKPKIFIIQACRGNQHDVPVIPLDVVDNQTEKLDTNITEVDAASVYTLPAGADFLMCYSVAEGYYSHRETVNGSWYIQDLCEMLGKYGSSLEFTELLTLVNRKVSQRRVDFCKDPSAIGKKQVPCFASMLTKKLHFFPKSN

Paired box protein Pax-8 = Paired box protein Pax-8 (Homo sapiens, UniProt Q06710); assay: PAX8 transcriptional activity inhibition in RMG-I – RMG-I cells, luciferase, cherry-pick, dose response (AID 687027); assay type: functional, cell-based;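 also: luciferase reporter driven by Pax8 target thyroperoxidase promoter measured by SteadyGlo luminescence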
[9] = general cell-killing toxicity readout – plate reader, dry powder samples, cytotoxicity control for PAX8 inhibitor project, dose response (AID 743021); assay type: functional, cell-based
[10] = OVCAR-3 cell viability loss – plate reader, dry powder samples, PAX8 inhibitor project, dose response (AID 743044); assay type: functional, cell-based
HEK293 = assay: EBV LMP1 TES2 canonical NF-kB signalling blockers – cell-based, HEK293, luciferase, cherry-pick, dose response (AID 588343); assay type: functional; conditions: Homo sapiens
[11] = biological target: T3, Apoptotic protease-activating factor 1 (Homo sapiens, UniProt O14727); assay type: functional
T3 sequence (O14727 whole entry): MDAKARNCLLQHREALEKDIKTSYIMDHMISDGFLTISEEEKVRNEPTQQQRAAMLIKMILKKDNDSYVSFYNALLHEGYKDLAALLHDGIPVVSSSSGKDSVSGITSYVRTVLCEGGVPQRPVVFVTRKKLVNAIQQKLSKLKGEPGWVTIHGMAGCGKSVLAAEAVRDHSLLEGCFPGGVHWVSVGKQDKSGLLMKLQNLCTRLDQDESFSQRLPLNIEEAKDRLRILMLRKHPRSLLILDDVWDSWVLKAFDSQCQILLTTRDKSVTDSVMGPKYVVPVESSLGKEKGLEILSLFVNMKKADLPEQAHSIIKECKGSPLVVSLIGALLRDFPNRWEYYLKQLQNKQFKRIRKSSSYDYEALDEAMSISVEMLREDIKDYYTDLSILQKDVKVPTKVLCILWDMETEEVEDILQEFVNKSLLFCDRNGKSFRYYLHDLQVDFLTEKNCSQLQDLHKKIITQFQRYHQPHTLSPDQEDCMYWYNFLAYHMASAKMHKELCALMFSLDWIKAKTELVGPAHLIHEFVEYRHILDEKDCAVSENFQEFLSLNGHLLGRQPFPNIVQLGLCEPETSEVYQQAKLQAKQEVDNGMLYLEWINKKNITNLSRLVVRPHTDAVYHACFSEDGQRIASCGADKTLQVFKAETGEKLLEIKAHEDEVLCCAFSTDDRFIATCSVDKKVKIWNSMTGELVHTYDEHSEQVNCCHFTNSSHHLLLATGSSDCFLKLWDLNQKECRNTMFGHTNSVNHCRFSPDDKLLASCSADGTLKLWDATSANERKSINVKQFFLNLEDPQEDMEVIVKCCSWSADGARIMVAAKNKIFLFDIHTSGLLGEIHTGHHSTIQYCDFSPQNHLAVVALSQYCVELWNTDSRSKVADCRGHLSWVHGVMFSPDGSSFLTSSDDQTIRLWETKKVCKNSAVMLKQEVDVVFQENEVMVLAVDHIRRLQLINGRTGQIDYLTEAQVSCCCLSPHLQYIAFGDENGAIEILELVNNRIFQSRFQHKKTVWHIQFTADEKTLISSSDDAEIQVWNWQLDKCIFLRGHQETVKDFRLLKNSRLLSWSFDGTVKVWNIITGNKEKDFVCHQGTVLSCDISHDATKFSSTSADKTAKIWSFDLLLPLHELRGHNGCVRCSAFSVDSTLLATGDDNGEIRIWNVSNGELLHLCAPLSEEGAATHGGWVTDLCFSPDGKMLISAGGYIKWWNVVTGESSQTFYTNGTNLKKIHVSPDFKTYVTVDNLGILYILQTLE

[12] = biological target: T4, Microphthalmia-associated transcription factor (Homo sapiens, UniProt O75030); assay: reducers of TRPM1 reporter luminescence, concentration series – cell-based, SK-MEL-5, cherry-picked, set 3, MITF inhibitor project, dose response (AID 493073); assay type: functional;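 also: SK-MEL-5 melanoma cells with luciferase driven by the MITF target TRPM1 promoter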
T4 sequence (O75030 whole entry): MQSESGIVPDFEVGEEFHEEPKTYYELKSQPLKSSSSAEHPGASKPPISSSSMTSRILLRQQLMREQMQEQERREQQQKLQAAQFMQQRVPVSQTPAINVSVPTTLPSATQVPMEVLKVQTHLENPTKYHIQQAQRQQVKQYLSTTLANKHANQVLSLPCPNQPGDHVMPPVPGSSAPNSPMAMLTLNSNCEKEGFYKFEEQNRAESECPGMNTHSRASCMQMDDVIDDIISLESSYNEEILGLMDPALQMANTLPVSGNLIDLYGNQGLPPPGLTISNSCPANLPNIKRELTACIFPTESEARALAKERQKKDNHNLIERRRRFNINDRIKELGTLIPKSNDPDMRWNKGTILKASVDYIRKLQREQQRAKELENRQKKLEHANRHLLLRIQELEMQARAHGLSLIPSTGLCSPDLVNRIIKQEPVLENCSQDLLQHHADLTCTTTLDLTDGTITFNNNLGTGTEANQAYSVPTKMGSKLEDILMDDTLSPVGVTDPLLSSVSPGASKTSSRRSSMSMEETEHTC

[13] = alpha-synuclein stem-loop luciferase translation blockers – H4 neuroglioma cells, luminescence, confirmation (AID 1988); assay type: functional, cell-based
[14] = Luminescence Cell-Based Dose Response HTS to Identify Inhibitors of 5'UTR Stem-Loop Driven Prion Protein mRNA Translation in H4 Neuroglioblastoma Cells. [Related pubchem assays: 1827 (Project Summary), 1813 (Primary HTS)]; assay type: functional
[15] = HCT116 cell viability decrease, GSK3B pretreatment – CellTiter-Glo, IC50, dose response (AID 1117339); assay type: functional; conditions: HCT-116
[16] = CellTiter-Glo luminescence survival assay, SW480 colon tumor line, concentration-response curve, half-maximal inhibitory concentration (AID 1117338); assay type: functional
[17] = RKO cell viability reduction, dose response, CellTiter-Glo luminescence (AID 1117322); assay type: functional
[18] = SNU-C1 cell viability reduction, dose response, CellTiter-Glo luminescence (AID 1117323); assay type: functional, cell-based
[19] = cytotoxicity toward HT-29 cells – cell-based, CellTiter-Glo luminescence, IC50, dose response (AID 1117330); assay type: functional
[20] = cytotoxicity toward Colo320 cells – cell-based, CellTiter-Glo luminescence, IC50, dose response (AID 1117334); assay type: functional; conditions: COLO 320
[21] = cytotoxicity toward HCT116 cells – cell-based, CellTiter-Glo luminescence, IC50, dose response (AID 1117332); assay type: functional; conditions: HCT-116
[22] = Reduced DLD-1 viability, concentration-response, CellTiter-Glo luminescence (AID 1117352); assay type: functional

Chain of Paired box protein Pax-8 (Q06710 whole entry): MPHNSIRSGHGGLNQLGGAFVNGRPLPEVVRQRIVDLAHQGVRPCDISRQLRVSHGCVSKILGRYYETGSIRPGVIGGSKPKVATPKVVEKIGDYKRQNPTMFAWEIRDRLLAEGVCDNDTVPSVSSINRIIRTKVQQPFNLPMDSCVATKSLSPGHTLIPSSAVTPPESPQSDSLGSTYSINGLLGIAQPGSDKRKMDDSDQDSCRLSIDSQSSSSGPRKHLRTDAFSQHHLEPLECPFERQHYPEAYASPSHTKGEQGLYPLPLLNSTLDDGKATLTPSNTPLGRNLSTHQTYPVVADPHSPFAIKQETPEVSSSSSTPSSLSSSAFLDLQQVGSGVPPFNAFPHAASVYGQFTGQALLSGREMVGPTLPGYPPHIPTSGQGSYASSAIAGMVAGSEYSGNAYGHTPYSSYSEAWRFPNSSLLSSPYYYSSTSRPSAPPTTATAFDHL

For O=C1NN(c2ccc(Br)cc2)C(=O)/C1=C\c1ccc(O)cc1O, the IC50 [1] was > 100 µM (active), the EC50 [2] was > 38 µM (not active) and the IC50 [3] was 159 µM (active). For the same compound, the EC50 [4] was > 150 µM (inconclusive).
With O=C(Nc1ccc(Br)cc1)c1ccc(F)c(S(=O)(=O)NCc2cccs2)c1 the AC50 [5] was 4.35 µM (active), the AC50 [6] was 3.05 µM (active) and the AC50 [7] was 6.05 µM (active).
For CCc1ccc(OCC(=O)NNC(=S)NC(=O)C2CC2)c(Br)c1, the EC50 [2] was 1.61 µM (active), the AC50 [8] was 0.978 µM (active) and the EC50 [4] was > 150 µM (inactive).
In the case of Oc1ccc(/N=C/c2c(O)ccc3ccccc23)cc1, the AC50 (Caspase-6) is reported as 10 µM (active).
In the case of O=C(Nc1ccccc1)N1CCCCN2[C@H](CO)[C@H](c3ccc(C#Cc4ccccc4)cc3)[C@H]2C1, the AC50 (Paired box protein Pax-8) is reported as 16.8 µM (active), the AC50 [9] is reported as 35.5 µM (active) and the AC50 [10] is reported as 20 µM (active).
In the case of O=C(COC(=O)c1ccc([N+](=O)[O-])o1)Nc1ccc(Br)cc1F, the AC50 (Caspase-6) is reported as 40.1 µM (active).
With Cc1ccccc1C(=O)N1CCN(c2ccc(NC(=O)c3cccs3)cc2)CC1 the AC50 (HEK293) was 0.788 µM (active).
With Cc1ccc(S(=O)(=O)[N-]C2=C(n3cc[n+](CCC(C)C)c3)C(=O)c3ccccc3C2=O)cc1 the IC50 [11] was 12.2 µM (active) and the AC50 [12] was 4.11 µM (active).
For O=C1NC(=O)/C(=C\c2ccc(OCc3cccc(C(=O)O)c3)c(Cl)c2)N1, the EC50 [13] was 9.49 µM (inconclusive), the AC50 (HEK293) was 6.47 µM (active) and the EC50 [14] was 10.6 µM (active).
In the case of O=C(O)c1ccccc1NS(=O)(=O)c1ccc(NN=Cc2ccccc2F)c([N+](=O)[O-])c1, the AC50 (Caspase-6) is reported as 19 µM (active).
With CC(C)Cn1cnc2c1c(=O)n(C)c(=O)n2C [ISBUFYLLINE] the IC50 [15] was > 20 µM (inactive), the IC50 [16] was > 20 µM (inactive) and the IC50 [17] was > 20 µM (inactive). The IC50 [18] was > 20 µM (inactive), the IC50 [19] was > 20 µM (inactive) and the IC50 [20] was > 20 µM (inactive). The IC50 [21] was > 20 µM (inactive) and the IC50 [22] was > 20 µM (inactive).
